Assay results published in US11345711B2, “8,9-dihydroimidazo[1,2-a]pyrimido[5,4-e]pyrimidin-5(6H)-ones” (IMPACT THERAPEUTICS (SHANGHAI), INC, priority 2016, dated 2022).
Where two headings read alike, the source gives them in different places.

Columns and labels:
NCI-H1299 cells = experiment: MTT based cell viability assay on NCI-H1299 cells; details: Homo sapiens, read-out: IC50, growth inhibition of NCI-H1299 cells
Summary of the method: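 NCI-H1299 cells (1000/well, settled overnight) were exposed for 3 d at 37 °C, 5% CO2, to an eight-point series of 10 μM to 0.01 μM plus DMSO blank, as prepared in DMSO (final DMSO 1‰). MTT (0.5 mg/mL, 4 h) was read at 552/630/690 nm. IC50 came from sigmoidal dose-response fits of survival.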

LoVo cells = experiment: MTT based cell viability assay on LoVo cells; details: Homo sapiens, LoVo, 72 h, 3 d, read-out: IC50, growth inhibition of LoVo cells
Summary of the method: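 Inhibition of LoVo proliferation was derived as IC50 from a sigmoidal dose-response fit of cell survival. Readout was MTT (0.5 mg/mL, 4 h) with absorbance at 552/630/690 nm, after 3-day treatment at 37 °C. Eight-point series from 10 μM to 0.01 μM, DMSO control, 1% DMSO final.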

Wee1 (h) = Wee1 (h) (Homo sapiens, UniProt P30291); experiment: Wee1 kinase (h) detection method, [γ-33P]-ATP filter assay; assay type: biochemical
Wee1 (h), sequence (P30291 whole entry): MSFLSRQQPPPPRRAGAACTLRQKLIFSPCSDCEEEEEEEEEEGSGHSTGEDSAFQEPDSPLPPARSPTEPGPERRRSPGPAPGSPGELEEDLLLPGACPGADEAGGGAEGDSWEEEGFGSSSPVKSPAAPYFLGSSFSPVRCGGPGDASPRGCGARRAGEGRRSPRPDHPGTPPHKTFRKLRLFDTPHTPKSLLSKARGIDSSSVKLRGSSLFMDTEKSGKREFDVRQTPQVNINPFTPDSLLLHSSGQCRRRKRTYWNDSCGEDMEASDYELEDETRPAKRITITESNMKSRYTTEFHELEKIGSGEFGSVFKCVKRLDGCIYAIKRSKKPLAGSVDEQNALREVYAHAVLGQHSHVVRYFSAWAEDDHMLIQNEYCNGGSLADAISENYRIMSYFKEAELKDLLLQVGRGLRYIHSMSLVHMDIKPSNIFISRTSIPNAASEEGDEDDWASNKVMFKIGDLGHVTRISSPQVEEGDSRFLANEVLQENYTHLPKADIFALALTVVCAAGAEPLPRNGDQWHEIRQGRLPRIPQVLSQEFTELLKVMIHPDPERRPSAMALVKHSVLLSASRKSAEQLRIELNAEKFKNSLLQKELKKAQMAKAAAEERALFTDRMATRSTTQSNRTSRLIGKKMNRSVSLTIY

Compound	IC50 (NCI-H1299 cells; NCI-H1299 cells)	IC50 (LoVo cells)	Inh. (%) of Wee1 kinase enzyme activity (Wee1 (h); C 1 μm compound)	IC50 (NCI-H1299 cells; NCI-H1299, NCI-H1299 cells)	Inh. (%) of Wee1 kinase enzyme activity (Wee1 (h); C 0.01 μm compound)	Inh. (%) of Wee1 kinase enzyme activity (Wee1 (h); C 0.1 μm compound)
CN1CCN(c2ccc(Nc3ncc4c(n3)N3CCN=C3N(c3ncccn3)C4=O)cc2)CC1 [Example 92, 6-(Pyrimidin-2-yl)-2-((4-(4-methylpiperazin-1-yl)phenyl)amino)-8,9-dihydroimidazo[1,2-a]pyrimido[5,4-e]pyrimidin-5(6H)-one]	> 10000 nM	> 100000 nM	1%			
C[C@@H]1CN(c2ccc(Nc3ncc4c(n3)N3CCN=C3N(c3c(F)cccc3Cl)C4=O)c(C(F)(F)F)c2)C[C@H](C)N1C [Example 41, 6-(2-Chloro-6-fluorophenyl)-2-((2-trifluoromethyl-4-((3S,5R)-3,4,5-trimethylpiperazin-1-yl)phenyl)amino)-8,9-dihydroimidazo[1,2-a]pyrimido[5,4-e]pyrimidin-5(6H)-one]	> 10000 nM	> 100000 nM	2%			
Cc1cc(Nc2ncc3c(n2)N2CCN=C2N(c2c(F)cccc2Cl)C3=O)ccc1N1CCN(C(C)C)CC1 [Example 52, 6-(2-Chloro-6-fluorophenyl)-2-((4-(4-isopropylpiperazin-1-yl)-3-methylphenyl)amino)-8,9-dihydroimidazo[1,2-a]pyrimido[5,4-e]pyrimidin-5(6H)-one]		87.4 nM	93%	127 nM	111%	80%
COc1cccc(Cl)c1N1C(=O)c2cnc(Nc3ccc(N4CCN(C)CC4)c(C)c3)nc2N2CCN=C21 [Example 82, 6-(2-Chloro-6-methoxyphenyl)-2-((3-methyl-4-(4-methylpiperazin-1-yl)phenyl)amino)-8,9-dihydroimidazo[1,2-a]pyrimido[5,4-e]pyrimidin-5(6H)-one]	1200 nM	946 nM	83%			
CN1CCN(c2ccc(Nc3ncc4c(n3)N3CCN=C3N(c3c(Cl)cccc3Cl)C4=O)cc2CO)CC1 [Example 181, 6-(2,6-Dichlorophenyl)-2-((3-(hydroxymethyl)-4-(4-methylpiperazin-1-yl)phenyl)amino)-8,9-dihydroimidazo[1,2-a]pyrimido[5,4-e]pyrimidin-5(6H)-one]	187 nM	142 nM	96%			
CN1CCN(c2c(Cl)cc(Nc3ncc4c(n3)N3CCN=C3N(c3c(Cl)cccc3Br)C4=O)cc2Cl)CC1 [Example 164, 6-(2-Bromo-6-chlorophenyl)-2-((3,5-dichloro-4-(4-methylpiperazin-1-yl)phenyl)amino)-8,9-dihydroimidazo[1,2-a]pyrimido[5,4-e]pyrimidin-5(6H)-one]		101 nM	97%	159 nM	17%	68%
CN1CCN(c2ccc(Nc3ncc4c(n3)N3CCN=C3N(c3ccc(Cl)cc3Cl)C4=O)cc2)CC1 [Example 87, 6-(2,4-Dichlorophenyl)-2-((4-(4-methylpiperazin-1-yl)phenyl)amino)-8,9-dihydroimidazo[1,2-a]pyrimido[5,4-e]pyrimidin-5(6H)-one]	> 10000 nM	> 100000 nM	75%			
CN1CCN(c2ccc(Nc3ncc4c(n3)N3CCN=C3N(C3CCCCC3)C4=O)cc2)CC1 [Example 21, 6-Cyclohexyl-2-((4-(4-methylpiperazin-1-yl)phenyl)amino)-8,9-dihydroimidazo[1,2-a]pyrimido[5,4-e]pyrimidin-5(6H)-one]	3300 nM	2130 nM	9%			
O=C1c2cnc(Nc3ccc(N4CCOCC4)cc3)nc2N2CCN=C2N1c1c(Cl)cccc1Cl [Example 183, 6-(2,6-Dichlorophenyl)-2-((4-morpholinophenyl)amino)-8,9-dihydroimidazo[1,2-a]pyrimido[5,4-e]pyrimidin-5(6H)-one]	1040 nM	775 nM	95%			
Cc1cc(Nc2ncc3c(n2)N2CCN=C2N(c2c(Cl)cccc2Cl)C3=O)ccc1N1C[C@@H](C)N(C)[C@@H](C)C1 [Example 77, 6-(2,6-Dichlorophenyl)-2-((3-methyl-4-((3S,5R)-3,4,5-trimethylpiperazin-1-yl)phenyl)amino)-8,9-dihydroimidazo[1,2-a]pyrimido[5,4-e]pyrimidin-5(6H)-one]		52.4 nM	88%	217 nM	11%	86%
Cc1cc(Nc2ncc3c(n2)N2CCN=C2N(c2c(Cl)cccc2Br)C3=O)cc(Br)c1N1CCN(C)CC1 [Example 167, 6-(2-Bromo-6-chlorophenyl)-2-((3-bromo-5-methyl-4-(4-methylpiperazin-1-yl)phenyl)amino)-8,9-dihydroimidazo[1,2-a]pyrimido[5,4-e]pyrimidin-5(6H)-one]		62.7 nM	98%	107 nM	21%	82%
CN1CCN(c2c(Cl)cc(Nc3ncc4c(n3)N3CCN=C3N(c3c(Cl)cccc3Cl)C4=O)cc2Br)CC1 [Example 155, 6-(2,6-Dichlorophenyl)-2-((3-bromo-5-chloro-4-(4-methylpiperazin-1-yl)phenyl)amino)-8,9-dihydroimidazo[1,2-a]pyrimido[5,4-e]pyrimidin-5(6H)-one]		74.1 nM	94%	109 nM	16%	66%
COc1cc(Nc2ncc3c(n2)N2CCN=C2N(c2c(F)cccc2Cl)C3=O)ccc1N1CCN(C)CC1 [Example 54, 6-(2-Chloro-6-fluorophenyl)-2-((3-methoxy-4-(4-methylpiperazin-1-yl)phenyl)amino)-8,9-dihydroimidazo[1,2-a]pyrimido[5,4-e]pyrimidin-5(6H)-one]	1530 nM	155 nM	81%			
Cc1cc(Nc2ncc3c(n2)N2CCN=C2N(c2c(Cl)cccc2Br)C3=O)cc(F)c1N1CCN(C)CC1 [Example 165, 6-(2-Bromo-6-chlorophenyl)-2-((3-fluoro-5-methyl-4-(4-methylpiperazin-1-yl)phenyl)amino)-8,9-dihydroimidazo[1,2-a]pyrimido[5,4-e]pyrimidin-5(6H)-one]		24.1 nM	92%	97.3 nM		
COc1cc(Nc2ncc3c(n2)N2CCN=C2N(c2c(F)cccc2Cl)C3=O)cc(Cl)c1N1CCN(C)CC1 [Example 126, 6-(2-Chloro-6-fluorophenyl)-2-((3-chloro-5-methoxy-4-(4-methylpiperazin-1-yl)phenyl)amino)-8,9-dihydroimidazo[1,2-a]pyrimido[5,4-e]pyrimidin-5(6H)-one]		56.7 nM	89%	67 nM		
CN1CCN(c2ccc(Nc3ncc4c(n3)N3CCN=C3N(c3cccs3)C4=O)cc2)CC1 [Example 23, 2-((4-(4-Methylpiperazin-1-yl)phenyl)amino)-6-(thiophen-2-yl)-8,9-dihydroimidazo[1,2-a]pyrimido[5,4-e]pyrimidin-5(6H)-one]	> 10000 nM	> 3000 nM	22%			
CN1CCN(c2ccc(Nc3ncc4c(n3)N3CCN=C3N(C3CCCC3)C4=O)cc2)CC1 [Example 95, 6-Cyclopentyl-2-((4-(4-methylpiperazin-1-yl)phenyl)amino)-8,9-dihydroimidazo[1,2-a]pyrimido[5,4-e]pyrimidin-5(6H)-one]	2130 nM	1880 nM	8%			
CN1CCN(Cc2ccc(Nc3ncc4c(n3)N3CCN=C3N(c3c(F)cccc3Cl)C4=O)cc2)CC1 [Example 104, 6-(2-Chloro-6-fluorophenyl)-2-((4-((4-methylpiperazin-1-yl)methyl)phenyl)amino)-8,9-dihydroimidazo[1,2-a]pyrimido[5,4-e]pyrimidin-5(6H)-one]	1050 nM	460 nM	93%			
C[C@@H]1CN(c2ccc(Nc3ncc4c(n3)N3CCN=C3N(c3c(Cl)cccc3Cl)C4=O)c(C(F)(F)F)c2)C[C@H](C)N1C [Example 68, 6-(2,6-Dichlorophenyl)-2-((2-trifluoromethyl-4-((3S,5R)-3,4,5-trimethylpiperazin-1-yl)phenyl)amino)-8,9-dihydroimidazo[1,2-a]pyrimido[5,4-e]pyrimidin-5(6H)-one]	> 10000 nM	> 100000 nM	6%			
Cc1cc(Nc2ncc3c(n2)N2CCN=C2N(c2c(Cl)cccc2Cl)C3=O)cc2c1C(C)(C)CN(C)C2 [Example 133, 6-(2,6-Dichlorophenyl)-2-((2,4,4,5-tetramethyl-1,2,3,4-tetrahydroisoquinolin-7-yl)amino)-8,9-dihydroimidazo[1,2-a]pyrimido[5,4-e]pyrimidin-5(6H)-one]		165 nM	95%	46 nM		
Cc1cc(Nc2ncc3c(n2)N2CCN=C2N(c2c(Cl)cccc2Cl)C3=O)cc(Cl)c1N1C[C@@H](C)N(C)[C@@H](C)C1 [Example 137, 6-(2,6-Dichlorophenyl)-2-((3-chloro-5-methyl-4-((3S,5R)-3,4,5-trimethylpiperazin-1-yl)phenyl)amino)-8,9-dihydroimidazo[1,2-a]pyrimido[5,4-e]pyrimidin-5(6H)-one]		114 nM	96%	122 nM	20%	78%
